Data reported in US20240229101A1, “METHOD FOR DETECTING INTRACELLULAR ACTIVITY OF CYP ENZYMES” (NATIONAL INSTITUTE OF ADVANCED INDUSTRIAL SCIENCE AND …, priority 2021, published 2024).
Each block holds one molecule with its values, some of them ahead of it.

Assays:
CYP enzyme group = assay: Raman observation of HepaRG hepatocytes, signal of oxidized CYP enzyme group (1370, 1636 cm^-1); assay type: cell-based, human
Text: (§1) A Raman image of the cell group cultured using the above-mentioned method (1) or (2) was constructed by quantitatively measuring the Raman signal using Raman spectroscopy. Here, the “observation” in the present specification includes both detecting a Raman scattering signal of a cell group and acquiring and observing a Raman image of a cell group. […] Details are explained in each Example.
The culture medium of the cultured cell group was removed, and the cell group was washed twice with PBS. An observation solution (Live Cell Imaging Solution (A14291DJ, Thermo Fisher Scientific)) was added to the washed cell group. The thus-treated cell group was subjected to Raman observation using the Raman microscope (Non Patent Literature 3) described using FIG. 1 (FIG. 6, FIG. 9 to 11, FIG. 13 to FIG. 21, FIG. 23 to FIG. 26).
A 40× water immersion objective lens (CFI Apochromat Lambda S 40XC WI) equipped in a Raman microscope was used to excite the Raman scattered light of the cell group and to detect the Raman scattering signal. The excitation light of the Raman scattered light of the cell group was irradiated by condensing a laser beam with a wavelength of 532 nm into a straight line with a predetermined length (hereinafter referred to as a line) using the water immersion objective lens.
(§2) The flow of detection of Raman scattered light of a cell group that was generated by excitation with excitation light is explained. […] The Raman scattering signal imaged on the slit is then separated by diffraction grating inside the spectroscope and detected by a cooling-type CCD image sensor (PIXIS 400B, Princeton Instruments) used as a photodetector. Raman scattering signals scattered from everywhere on the condensed line can be measured simultaneously and independently by different pixels on the CCD. […] Respective Raman signals were simultaneously detected in an about 133.3 μm region on the direction of the condensed line.

CYP3A4 = target: T1, CYP3A4 (Homo sapiens, UniProt P08684); assay: CYP3A4 activity in cell group by luminescence method (P450-Glo, Luciferin-IPA); assay type: cell-based; settings: HepaRG pre-induced with 2% DMSO, 2 ng/ml, 48 hr, vs control (FIG. 18)
T1 construct: endogenous in cells; host or cells: HepaRG cells (human liver tumor-derived; BIOPREDIC International)
Procedure: In order to confirm the enzyme activity of CYP3A4, which is particularly expressed in liver cells among the CYP enzymes in the cell group subjected to Raman observation, a test using a luminescence method (hereinafter a luminescence test) was performed in parallel with the Raman observation. The cell is group used in the luminescence test was a cell group separated from the cultured cells used in the below-mentioned Raman observation in (5). That is, the cell group cultured under the same conditions and at the same time as the cultured cells used in Raman observation was used. CYP luminescence test was performed using a commercially available luminescence assay kit (P450-Glo-CYP3A4-Assay-and-Screening-System) according to the provided protocol.
When the Luciferin-IPA substrate is converted to luciferin by CYP3A4, it becomes a substrate for luciferase, producing luminescence proportional to the activity of CYP3A4. […] Luciferase (50 μl) was added dropwise to the dispensed substrate-containing medium, and luminescence was caused using the luciferin-luciferase reaction. Luminescence was detected using a micro-plate reader (Synergy HTX, BioTek). The CYP3A4 activity detected by the present luminescence method is shown in FIG. 7, FIG. 14, FIG. 16, FIG. 18, FIG. 20, and FIG. 22.

[1] = system: CYP3A4, CYP1A2, CYP2B6, and CYP2C9; assay: Induction of gene expression of CYP enzymes by inducing agents; assay type: cell-based, human; settings: confirmed by the inventors
[2] = system: reduced heme b, mainly reduced cytochrome b5; assay: Raman observation of HepaRG hepatocytes, reduced heme b signal (675 cm^-1); assay type: cell-based, human; settings: HepaRG induced with 4 μM Rifampicin, inhibitor 10 μM for 5 min (FIG. 24)
Text: as §1
The culture medium of the cultured cell group was removed, and the cell group was washed twice with PBS. An observation solution (Live Cell Imaging Solution (A14291DJ, Thermo Fisher Scientific)) was added to the washed cell group. […]
as §2

T1 sequence (P08684 whole entry): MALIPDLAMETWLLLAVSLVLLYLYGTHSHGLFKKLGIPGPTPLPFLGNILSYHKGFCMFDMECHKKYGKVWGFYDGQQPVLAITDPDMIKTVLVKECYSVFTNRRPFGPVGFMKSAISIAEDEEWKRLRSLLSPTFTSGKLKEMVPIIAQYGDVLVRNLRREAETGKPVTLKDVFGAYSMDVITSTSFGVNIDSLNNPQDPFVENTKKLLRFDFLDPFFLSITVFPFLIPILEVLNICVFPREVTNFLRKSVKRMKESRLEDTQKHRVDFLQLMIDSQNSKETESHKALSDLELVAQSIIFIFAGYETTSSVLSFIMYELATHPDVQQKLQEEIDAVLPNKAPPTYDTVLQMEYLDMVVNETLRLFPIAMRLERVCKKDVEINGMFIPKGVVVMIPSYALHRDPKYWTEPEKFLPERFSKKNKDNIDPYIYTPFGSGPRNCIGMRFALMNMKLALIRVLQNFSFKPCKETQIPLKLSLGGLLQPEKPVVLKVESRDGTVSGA

Molecule: Interleukin-6 [IL-6]
CYP activity detected using Raman signals (1636 cm^-1) after suppression (CYP enzyme group; HepaRG pre-induced with 2% DMSO, 2 ng/ml, 48 hr, vs control (FIGS. 18, 19)): downregulation
activity of CYP3A4 (luminescence test) after suppression (CYP3A4): decreases

gene expression of at least one of CYP3A4, CYP1A2, CYP2B6, CYP2C9 [1]: induce gene expression
Molecule: NC(=O)N1c2ccccc2C=Cc2ccccc21 [Carbamazepine]

gene expression of at least one of CYP3A4, CYP1A2, CYP2B6, CYP2C9 [1]: induce gene expression
Molecule: O=C1NC(=O)C(c2ccccc2)(c2ccccc2)N1 [Phenytoin]

Raman signal at a wavenumber of 1636 cm^-1 after inhibition (CYP enzyme group; HepaRG induced with 4 μM Rifampicin, inhibitor 10 μM for 5 min (FIG. 23)): reduces
median value of per-cell Raman signal at 1636 cm^-1 after inhibition (CYP enzyme group; HepaRG induced with 4 μM Rifampicin, inhibitor 10 μM for 5 min, vs not administered, statistically significant (FIG. 23)): decreased
Molecule: CC[C@]1(C)C[C@@H](OC(=O)CSc2nnc(N)[nH]2)[C@]2(C)[C@H](C)CC[C@]3(CCC(=O)[C@H]32)[C@@H](C)[C@@H]1O [Azamulin]
Raman signal with a wavenumber of 675 cm^-1 after inhibition [2]: did not increase
